# Measurements from paper PMC6768323, “Adverse Maternal, Fetal, and Postnatal Effects of Hexafluoropropylene Oxide Dimer Acid (GenX) from Oral Gestational Exposure in Sprague-Dawley Rats” (Environmental Health Perspectives, 2019).
# Target: T1, chimp AR (Pan troglodytes, UniProt O97775)
# T1 construct: expressed in transfected cells; host or cells: CV-1 cells (ATCC CCL-70), adenoviral transduction
# T1 sequence (O97775 1-911): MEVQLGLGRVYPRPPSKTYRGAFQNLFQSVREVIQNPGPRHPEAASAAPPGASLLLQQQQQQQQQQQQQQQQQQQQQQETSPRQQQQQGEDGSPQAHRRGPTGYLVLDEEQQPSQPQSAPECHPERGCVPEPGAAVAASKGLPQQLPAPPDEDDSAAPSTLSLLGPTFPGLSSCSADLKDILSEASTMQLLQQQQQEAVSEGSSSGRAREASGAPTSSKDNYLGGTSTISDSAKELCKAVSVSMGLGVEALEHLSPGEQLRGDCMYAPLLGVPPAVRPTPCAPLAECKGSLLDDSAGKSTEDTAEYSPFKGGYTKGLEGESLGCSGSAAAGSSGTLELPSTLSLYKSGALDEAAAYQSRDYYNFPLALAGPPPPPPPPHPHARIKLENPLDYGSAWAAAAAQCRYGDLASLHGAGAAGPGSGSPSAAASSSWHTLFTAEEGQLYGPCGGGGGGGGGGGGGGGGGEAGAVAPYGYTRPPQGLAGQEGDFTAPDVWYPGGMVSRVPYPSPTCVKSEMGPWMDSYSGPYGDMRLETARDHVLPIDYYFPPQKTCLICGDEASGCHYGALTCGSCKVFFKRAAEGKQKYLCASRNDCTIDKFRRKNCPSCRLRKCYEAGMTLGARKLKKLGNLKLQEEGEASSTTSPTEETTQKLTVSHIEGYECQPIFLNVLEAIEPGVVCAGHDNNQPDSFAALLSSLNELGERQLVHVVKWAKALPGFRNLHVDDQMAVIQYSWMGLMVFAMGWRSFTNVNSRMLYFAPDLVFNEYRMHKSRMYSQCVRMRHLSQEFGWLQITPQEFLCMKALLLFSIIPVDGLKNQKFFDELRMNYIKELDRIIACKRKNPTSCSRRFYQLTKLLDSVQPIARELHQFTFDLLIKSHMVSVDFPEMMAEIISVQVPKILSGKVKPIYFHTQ
# Experiment: AR transcriptional activation, CV-1 cells
# Format: cell-based
# Experimental: HFPO-DA was assessed for agonism and antagonism of transcriptional activation for estrogen (ER), androgen (AR), and glucocorticoid receptors (GR). Method details for in vitro transactivation assays for ER ([Wilson et al. 2004a]), AR ([Hartig et al. 2002], [2007]), and GR ([Conley et al. 2017]; [Medlock Kakaley et al. 2018]) have been previously reported. Briefly, for ER activity we utilized the stably transfected T47D-KBluc cell line [publicly available via American Type Culture Collection (ATCC); CRL-2865] according to protocols provided by ATCC with the modification of Dulbecco’s Modified Eagle Media (DMEM) as the cell culture media instead of Roswell Park Memorial Institute (RPMI) media. […] All assays were run in 96-well plates and luminescence was detected using a BMG Fluostar Omega luminometer (BMG Labtech) following 24-h exposure. […] Cellular cytotoxicity across the dosing range was determined for CV-1 cells utilizing the 3-(4,5-dimethylthiazol-2-yl)-2,5-diphenyltetrazolium bromide (MTT) dye ([Mosmann 1983]). HFPO-DA was analyzed using n=2–3 biological replicate assay plates (i.e., unique cell passages) with four technical replicates per treatment per plate. […]
smiles,measurement,setting,value
"O=C(O)C(F)(OC(F)(F)C(F)(F)C(F)(F)F)C(F)(F)F (centres unmarked) [HFPO-DA, Hexafluoropropylene oxide dimer acid]",androgen receptor agonism,100 pM to 100 μM,no androgen or glucocorticoid receptor agonism
same,"androgen receptor antagonism, reduction in luciferase expression","100 μM, versus 100 pM DHT",42±1%
